Reference: patent publication US20030166653A1, “Novel form of (r)-n-[5-methyl-8-(4-methylpiperazin-1-yl)-1,2,3,4-tetrahydro-2-naphthyl]-4-morpholinobenzamide” (priority 2003, published 2003)
Values after ≈ are worked out from the molar mass of the structure shown.

Tests used:
Format in all cases: physicochemical
[1] = Stability in water solutions (pH not adjusted), HPLC assay
Text: (§1) The stability of [5-Methyl-8-(4-methylpiperazin-1-yl)-1,2,3,4-tetrahydro-2-naphtyl]-4-morpholinobenzamide(=“Base” in tables below) and (R)-N-[5-methyl-8-(4-methylpiperazin-1-yl)-1,2,3,4-tetrahydro-2-naphtyl]-4-morpholinobenzamide monohydrobromide Form A (=“Form A” in tables below), as bulk drug substance and in solutions at different pH levels after exposure to daylight and at elevated temperatures, has been studied. Three solutions were made from each batch of drug substance. One solution in pure water, one in 0.1 mM HCl (pH 4.1) and one in 0.1 M HCl (pH 1.1). The content of [5-Methyl-8-(4-methylpiperazin-1-yl)-1,2,3,4-tetrahydro-2-naphtyl]-4-morpholinobenzamide (=Base) was determined by HPLC, all results are calculated as the base.

[2] = Stability of solution in 0.1 mM HCl, pH 4.1, HPLC assay
Text: as §1

[3] = Stability of bulk drug substance (HPLC purity) in daylight and at 90° C.; conditions: for HPLC Purity (100% - related substances): bulk
Experimental: The stability of [5-Methyl-8-(4-methylpiperazin-1-yl)-1,2,3,4-tetrahydro-2-naphtyl]-4-morpholinobenzamide(=“Base” in tables below) and (R)-N-[5-methyl-8-(4-methylpiperazin-1-yl)-1,2,3,4-tetrahydro-2-naphtyl]-4-morpholinobenzamide monohydrobromide Form A (=“Form A” in tables below), as bulk drug substance and in solutions at different pH levels after exposure to daylight and at elevated temperatures, has been studied. The bulk substances are very stable, both in daylight and at 90° C. There are no significant differences between the HPLC purity of [5-Methyl-8-(4-methylpiperazin-1-yl)-1,2,3,4-tetrahydro-2-naphtyl]-4-morpholinobenzamide (=Base) and (R)-N-[5-methyl-8-(4-methylpiperazin-1-yl)-1,2,3,4-tetrahydro-2-naphtyl]-4-morpholinobenzamide monohydrobromide Form A (=Form A) at the tested conditions.

[4] = Stability of solution in 0.1 M HCl, pH 1.1, HPLC assay
Text: as §1

[5] = Solubility in water by HPLC-analysis; conditions: as the free base by HPLC-analysis
[6] = Water sorption by dynamic vapour sorption (DVS); conditions: solid state characterization; monohydrobromide
[7] = daylight RT, 14 days, % of start
[8] = daylight RT, 23 days, % of start

## Cc1ccc(N2CCN(C)CC2)c2c1CCC(NC(=O)c1ccc(N3CCOCC3)cc1)C2 (centres unmarked) [Base, [5-Methyl-8-(4-methylpiperazin-1-yl)-1,2,3,4-tetrahydro-2-naphtyl]-4-morpholinobenzamide]
[1]; 5° C., 8 days, % of start
  Stability in water solutions, assay: 101%
[1]; 5° C., 14 days, % of start
  Stability in water solutions, assay: 101%
[1]; 5° C., 23 days, % of start
  Stability in water solutions, assay: 102%
[1]; 5° C., Start
  Stability in water solutions, assay: 0.00698 mg base/ml
[1]; 5° C., Start, % of start
  Stability in water solutions, assay: (100%)
[1]; 60° C., 2 days, % of start
  Stability in water solutions, assay: 105%
[1]; 60° C., 8 days, % of start
  Stability in water solutions, assay: 104%
[1]; 60° C., 14 days, % of start
  Stability in water solutions, assay: 106%
[1]; 60° C., 23 days, % of start
  Stability in water solutions, assay: 102%
[1]; 60° C., Start
  Stability in water solutions, assay: 0.00698 mg base/ml
[1]; 60° C., Start, % of start
  Stability in water solutions, assay: (100%)
[1]; Dark RT, 8 days, % of start
  Stability in water solutions, assay: 94%
[1]; Dark RT, 14 days, % of start
  Stability in water solutions, assay: 94%
[1]; Dark RT, 23 days, % of start
  Stability in water solutions, assay: 95%
[1]; Dark RT, Start
  Stability in water solutions, assay: 0.00698 mg base/ml
[1]; Dark RT, Start, % of start
  Stability in water solutions, assay: (100%)
[1]; daylight RT, 8 days, % of start
  Stability in water solutions, assay: 95%
[1]; [7]
  Stability in water solutions, assay: 94%
[1]; [8]
  Stability in water solutions, assay: 91%
[1]; daylight RT, Start
  Stability in water solutions, assay: 0.00698 mg base/ml
[1]; daylight RT, Start, % of start
  Stability in water solutions, assay: (100%)
[1]; room temperature, pH not adjusted
  stability in pure water solution, comparison in words: less stable than Form A
[2]; 5° C., 8 days, % of start
  Solution in 0.1 mM HCl, pH 4.1, assay: 100%
[2]; 5° C., 14 days, % of start
  Solution in 0.1 mM HCl, pH 4.1, assay: 99%
[2]; 5° C., 23 days, % of start
  Solution in 0.1 mM HCl, pH 4.1, assay: 99%
[2]; 5° C., Start
  Solution in 0.1 mM HCl, pH 4.1, assay: 0.0443 mg base/ml
[2]; 5° C., Start, % of start
  Solution in 0.1 mM HCl, pH 4.1, assay: (100%)
[2]; 60° C., 2 days, % of start
  Solution in 0.1 mM HCl, pH 4.1, assay: 96%
[2]; 60° C., 8 days, % of start
  Solution in 0.1 mM HCl, pH 4.1, assay: 93%
[2]; 60° C., 14 days, % of start
  Solution in 0.1 mM HCl, pH 4.1, assay: 67%
[2]; 60° C., 23 days, % of start
  Solution in 0.1 mM HCl, pH 4.1, assay: 57%
[2]; 60° C., Start
  Solution in 0.1 mM HCl, pH 4.1, assay: 0.0443 mg base/ml
[2]; 60° C., Start, % of start
  Solution in 0.1 mM HCl, pH 4.1, assay: (100%)
[2]; Dark RT, 8 days, % of start
  Solution in 0.1 mM HCl, pH 4.1, assay: 99%
[2]; Dark RT, 14 days, % of start
  Solution in 0.1 mM HCl, pH 4.1, assay: 98%
[2]; Dark RT, 23 days, % of start
  Solution in 0.1 mM HCl, pH 4.1, assay: 97%
[2]; Dark RT, Start
  Solution in 0.1 mM HCl, pH 4.1, assay: 0.0443 mg base/ml
[2]; Dark RT, Start, % of start
  Solution in 0.1 mM HCl, pH 4.1, assay: (100%)
[2]; [7]
  Solution in 0.1 mM HCl, pH 4.1, assay: 98%
[2]; [8]
  Solution in 0.1 mM HCl, pH 4.1, assay: 98%
[2]; daylight RT, Start
  Solution in 0.1 mM HCl, pH 4.1, assay: 0.0443 mg base/ml
[2]; daylight RT, Start, % of start
  Solution in 0.1 mM HCl, pH 4.1, assay: (100%)
[2]; pH 4.1, 60° C. (more pronounced than at pH 1.1)
  stability in solution, comparison in words: less stable than Form A
[2]; pH 4.1, except at 60° C.
  stability in solution in words: good
[3]; 90° C., 2 days
  HPLC Purity (100% - related substances): 99.9%
[3]; 90° C., 8 days
  HPLC Purity (100% - related substances): 99.9%
[3]; 90° C., 14 days
  HPLC Purity (100% - related substances): 99.9%
[3]; 90° C., 21 days
  HPLC Purity (100% - related substances): 99.9%
[3]; 90° C., 30 days
  HPLC Purity (100% - related substances): 99.9%
[3]; 90° C., Start
  HPLC Purity (100% - related substances): 100%
[3]; daylight, RT, 8 days
  HPLC Purity (100% - related substances): 99.9%
[3]; daylight, RT, 14 days
  HPLC Purity (100% - related substances): 99.9%
[3]; daylight, RT, 21 days
  HPLC Purity (100% - related substances): 99.9%
[3]; daylight, RT, 30 days
  HPLC Purity (100% - related substances): 99.9%
[3]; daylight, RT, Start
  HPLC Purity (100% - related substances): 100%
[3]; in daylight and at 90° C.
  stability of bulk substance in words: very stable
[4]; 5° C., 8 days, % of start
  Solution in 0.1 M HCl, pH 1.1, assay: 99%
[4]; 5° C., 14 days, % of start
  Solution in 0.1 M HCl, pH 1.1, assay: 100%
[4]; 5° C., 23 days, % of start
  Solution in 0.1 M HCl, pH 1.1, assay: 97%
[4]; 5° C., Start
  Solution in 0.1 M HCl, pH 1.1, assay: 0.479 mg base/ml
[4]; 5° C., Start, % of start
  Solution in 0.1 M HCl, pH 1.1, assay: (100%)
[4]; 60° C., 2 days, % of start
  Solution in 0.1 M HCl, pH 1.1, assay: 98%
[4]; 60° C., 8 days, % of start
  Solution in 0.1 M HCl, pH 1.1, assay: 96%
[4]; 60° C., 14 days, % of start
  Solution in 0.1 M HCl, pH 1.1, assay: 91%
[4]; 60° C., 23 days, % of start
  Solution in 0.1 M HCl, pH 1.1, assay: 83%
[4]; 60° C., Start
  Solution in 0.1 M HCl, pH 1.1, assay: 0.479 mg base/ml
[4]; 60° C., Start, % of start
  Solution in 0.1 M HCl, pH 1.1, assay: (100%)
[4]; Dark RT, 8 days, % of start
  Solution in 0.1 M HCl, pH 1.1, assay: 100%
[4]; Dark RT, 14 days, % of start
  Solution in 0.1 M HCl, pH 1.1, assay: 100%
[4]; Dark RT, 23 days, % of start
  Solution in 0.1 M HCl, pH 1.1, assay: 98%
[4]; Dark RT, Start
  Solution in 0.1 M HCl, pH 1.1, assay: 0.479 mg base/ml
[4]; Dark RT, Start, % of start
  Solution in 0.1 M HCl, pH 1.1, assay: (100%)
[4]; [7]
  Solution in 0.1 M HCl, pH 1.1, assay: 100%
[4]; [8]
  Solution in 0.1 M HCl, pH 1.1, assay: 98%
[4]; daylight RT, Start
  Solution in 0.1 M HCl, pH 1.1, assay: 0.479 mg base/ml
[4]; daylight RT, Start, % of start
  Solution in 0.1 M HCl, pH 1.1, assay: (100%)
[4]; pH 1.1, 60° C.
  stability in solution, comparison in words: less stable than Form A
[4]; pH 1.1, except at 60° C.
  stability in solution in words: good
[5]
  solubility in water: 34 µg/mL (≈ 75.8 µM)

## Br.Cc1ccc(N2CCN(C)CC2)c2c1CC[C@@H](NC(=O)c1ccc(N3CCOCC3)cc1)C2 [Form B, (R)-N-[5-methyl-8-(4-methylpiperazin-1-yl)-1,2,3,4-tetrahydro-2-naphtyl]-4-morpholinobenzamide monohydrobromide]
[6]
  hygroscopicity / water uptake in words: readily resorbs water again
